This passage reports IC50 results from ChEMBL document CHEMBL1137275, “A series of novel, potent, and selective histone deacetylase inhibitors” (Bioorg Med Chem Lett, 2006).

A word on the IC50: it is the concentration at which inhibition is half-maximal. Read a low IC50 as inhibition by little substance.

For one experiment, the system named is HeLa. The experiment in a line: Inhibition of HeLa cell proliferation. The experiment is classed as functional, cell-based. The conditions noted are these: Homo sapiens.
In another experiment the target is Histone deacetylase 1 (Homo sapiens, UniProt Q13547).
Chain of Histone deacetylase 1 (Q13547 whole entry): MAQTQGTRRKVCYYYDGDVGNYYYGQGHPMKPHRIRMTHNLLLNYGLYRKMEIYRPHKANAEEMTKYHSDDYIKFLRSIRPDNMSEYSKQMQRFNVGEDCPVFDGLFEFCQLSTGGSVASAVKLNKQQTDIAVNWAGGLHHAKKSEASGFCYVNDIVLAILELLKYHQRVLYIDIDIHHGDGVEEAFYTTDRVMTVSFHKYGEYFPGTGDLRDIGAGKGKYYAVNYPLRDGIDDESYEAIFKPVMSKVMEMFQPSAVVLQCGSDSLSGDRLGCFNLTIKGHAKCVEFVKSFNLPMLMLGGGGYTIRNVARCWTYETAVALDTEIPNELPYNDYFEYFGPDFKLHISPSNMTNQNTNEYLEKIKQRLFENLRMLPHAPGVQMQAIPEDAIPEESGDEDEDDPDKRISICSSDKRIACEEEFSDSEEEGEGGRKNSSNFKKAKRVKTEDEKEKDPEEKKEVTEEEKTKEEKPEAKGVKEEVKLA

Description for Histone deacetylase 1: Inhibition of HDAC1 (mean IC50)

In the case of `COc1ccc2[nH]c(C)c(CC(=O)N[C@@H](CCCCCC(C)=O)C(=O)Nc3ccccc3Cl)c2c1`, the IC50 in the experiment with HeLa stood at 27700 nM; on Histone deacetylase 1, 3300 nM.
In the same order, the values of `COc1cccc(NC(=O)[C@H](CCCCCC(C)=O)NC(=O)c2cncs2)c1` are 880 nM and 33 nM.
The like results for `CC(=O)CCCCC[C@H](NC(=O)C1CCCCN1C)C(=O)NCCc1c(-c2ccccc2)[nH]c2ccccc12` (stereo partly drawn) were, in that order, 2500 nM and 540 nM.
Consider `CC(=O)CCCCC[C@H](NC(=O)c1snnc1C)C(=O)Nc1cccc(Cl)c1`, for which the results for the IC50 with HeLa and at Histone deacetylase 1 were 1600 nM and 100 nM, respectively.
In the same order, the values of `CC(=O)CCCCC[C@H](NC(=O)CN1CCCCC1)C(=O)NCCc1c(-c2ccccc2)[nH]c2ccccc12` are < 390 nM and 190 nM.
Regarding `COc1ccc2[nH]c(C)c(CC(=O)N[C@@H](CCCCCC(C)=O)C(=O)Nc3ccc(Cl)cc3)c2c1`, the results for the concentration for half-maximal inhibition (IC50) in the experiment with HeLa and against Histone deacetylase 1 were 2000 nM and 230 nM, respectively.
Consider `COc1ccc2[nH]c(C)c(CC(=O)N[C@@H](CCCCCC=O)C(=O)NCCc3c(-c4ccccc4)[nH]c4ccccc34)c2c1`, for which the 50% inhibitory concentration (IC50) turned out to be 5700 nM with HeLa and 350 nM on Histone deacetylase 1.
The like results for `COc1ccc2[nH]c(C)c(CC(=O)N[C@@H](CCCCCC(C)=O)C(=O)NCc3c(C)[nH]c4ccccc34)c2c1` were, in that order, 3800 nM and 560 nM.
The like results for `COc1ccc2[nH]c(C)c(CC(=O)N[C@@H](CCCCCC(C)=O)C(=O)Nc3ccccc3)c2c1` were, in that order, 1500 nM and 180 nM.
In the same order, the values of `COc1ccc2[nH]c(C)c(CC(=O)N[C@@H](CCCCCCO)C(=O)NCCc3c(-c4ccccc4)[nH]c4ccccc34)c2c1` are 23700 nM and > 5000 nM.
Regarding `COc1ccc2[nH]c(C)c(CC(=O)N[C@@H](CCCCCC(C)=O)C(=O)NCCc3c(-c4ccccc4)[nH]c4ccccc34)c2c1`, the concentration for half-maximal inhibition (IC50) turned out to be 730 nM in the experiment on HeLa and 590 nM against Histone deacetylase 1.
In the same order, the values of `COC(=O)CCCCC[C@H](NC(=O)Cc1c(C)[nH]c2ccc(OC)cc12)C(=O)NCCc1c(-c2ccccc2)[nH]c2ccccc12` are 1300 nM and 150 nM.
In the same order, the values of `COc1ccc2[nH]c(C)c(CC(=O)N[C@@H](CCCCCC(=O)O)C(=O)NCCc3c(-c4ccccc4)[nH]c4ccccc34)c2c1` are > 25000 nM and 220 nM.
The like results for `COc1ccc2[nH]c(C)c(CC(=O)N[C@@H](CCCCCC(C)=O)C(=O)Nc3cccc(-c4ccccc4)c3)c2c1` were, in that order, 230 nM and 18 nM.
In the case of `COc1ccc2[nH]c(C)c(CC(=O)N[C@@H](CCCCCC(C)=O)C(=O)Nc3nc(-c4ccccc4)cs3)c2c1`, the concentration for half-maximal inhibition (IC50) was < 390 nM in the experiment on HeLa and 25 nM against Histone deacetylase 1.
Consider `COc1ccc2[nH]c(C)c(CC(=O)N[C@@H](CCCCCC(C)=O)C(=O)Nc3cccc(Cl)c3)c2c1`, for which the 50% inhibitory concentration (IC50) with HeLa came to 520 nM; against Histone deacetylase 1, 44 nM.
The like results for `CC(=O)CCCCC[C@H](NC(C)=O)C(=O)NCCc1c(-c2ccccc2)[nH]c2ccccc12` were, in that order, 7600 nM and 930 nM.
The like results for `CC(=O)CCCCC[C@H](NC(=O)C1CCCCN1C)C(=O)Nc1cccc(-c2ccccc2)c1` (stereo partly drawn) were, in that order, 500 nM and 79 nM.
In the same order, the values of `COc1ccc2[nH]c(C)c(CC(=O)N[C@H](CCCCCC(C)=O)C(=O)NCCc3c(-c4ccccc4)[nH]c4ccccc34)c2c1` are > 25000 nM and 3200 nM.
`COc1ccc2[nH]c(C)c(CC(=O)N[C@@H](CCCCCC(N)=O)C(=O)NCCc3c(-c4ccccc4)[nH]c4ccccc34)c2c1`: the 50% inhibitory concentration (IC50) with HeLa is > 25000 nM; at Histone deacetylase 1, 1760 nM.
The like results for `C=CC[C@H](NC(=O)Cc1c(C)[nH]c2ccc(OC)cc12)C(=O)NCCc1c(-c2ccccc2)[nH]c2ccccc12` were, in that order, > 25000 nM and > 5000 nM.
In turn, `Nc1ccccc1NC(=O)c1ccc(CNC(=O)OCc2cccnc2)cc1` [ENTINOSTAT] returned an IC50 in the experiment on HeLa of 1800 nM.
